Drawing on patent US10364245B2 (CHIESI FARMACEUTICI S.p.A., priority 2017, dated 2019), this text covers IC50 for 18 compounds.

Test [1] deals with T1, p38 alpha (Homo sapiens, UniProt Q16539).
T1 construct: purchased Invitrogen PV3304
Briefly: P38 alpha enzyme inhibition assay (Alphascreen kinase activity assay). Format: biochemical. Particulars: 100 pM p38 alpha, 2 hours preincubation at 25° C., 250 μM ATP, ATF-2 fusion protein; read-out: p38α inhibition. The essentials:
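Phosphorylation of ATF-2 fusion protein (0.3 μg/ml) read by AlphaScreen with anti-phospho-ATF2 antibody after 1 h kinase reaction at 25 °C, initiated by 250 μM ATP. Compounds first incubated 2 h at 25 °C with 100 pM p38 alpha in pH 7.5 HEPES buffer, 1% DMSO. IC50 derived from concentration-response data.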
For orientation: Bead proximity is the source of the signal in Alpha formats.

Test [2] deals with Peripheral Blood Mononuclear Cells (PBMCs), TNFα release. Briefly: LPS-stimulated PBMC TNFα release assay. The class given is cell-based. Particulars: human PBMC, LPS (10 ng/ml), 18 h, compound 1 h before LPS; read-out: LPS-stimulated PBMC TNFα release inhibition. The essentials:
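TNFα in cell-free supernatant, read on MSD plates, gave % inhibition curves and IC50 (≥3 separate experiments). Healthy-donor PBMCs had 1 h compound exposure at 37 °C in 1% FBS medium, then 18 h stimulation with 10 ng/ml LPS, after a 3 h serum-free rest.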

T1 sequence (Q16539 whole entry): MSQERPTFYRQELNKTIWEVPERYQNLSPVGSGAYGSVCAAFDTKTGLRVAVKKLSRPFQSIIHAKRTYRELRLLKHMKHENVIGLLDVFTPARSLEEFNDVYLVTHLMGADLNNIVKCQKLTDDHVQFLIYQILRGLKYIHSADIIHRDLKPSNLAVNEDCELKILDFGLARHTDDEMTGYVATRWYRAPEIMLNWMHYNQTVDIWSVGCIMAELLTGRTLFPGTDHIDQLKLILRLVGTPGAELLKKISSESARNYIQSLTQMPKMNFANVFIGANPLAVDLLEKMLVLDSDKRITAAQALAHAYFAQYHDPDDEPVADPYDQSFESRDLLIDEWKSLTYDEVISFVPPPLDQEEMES

In the case of `CN(C)CCCNC(=O)c1nc(NC(=O)N[C@H]2CC[C@@H](Oc3ccc4nnc(C(C)(C)C)n4c3)c3ccccc32)cc(C(C)(C)C)n1` [Example 118, 4-(tert-butyl)-6-(3-((1S,4R)-4-((3-(tert-butyl)-[1,2,4]triazolo[4,3-a]pyridin-6-yl)oxy)-1,2,3,4-tetrahydronaphthalen-1-yl)ureido)-N-(3-(dimethylamino)-propyl)pyrimidine-2-carboxamide], the IC50 in test [1] was 1 to 10 nM; in test [2] it was 1 to 5 nM.

Consider `CN1CCN(CCNC(=O)c2nc(NC(=O)N[C@H]3CC[C@@H](Oc4ccc5nnc(C(C)(C)C)n5c4)c4ccccc43)cc(C(C)(C)C)n2)CC1` [Example 119, 4-(tert-butyl)-6-(3-((1S,4R)-4-((3-(tert-butyl)-[1,2,4]triazolo[4,3-a]pyridin-6-yl)oxy)-1,2,3,4-tetrahydronaphthalen-1-yl)ureido)-N-(2-(4-methylpiperazin-1-yl)ethyl)pyrimidine-2-carboxamide], for which the IC50 is under 1 nM in test [1] and over 5 nM in test [2].

As for `CC(C)(C)c1cc(NC(=O)N[C@H]2CC[C@@H](Oc3ccc4nnc(C(C)(C)C)n4c3)c3ccccc32)nc(C(=O)NCCN(CCO)CCO)n1` [Example 120, N-(2-(bis(2-hydroxyethyl)amino)ethyl)-4-(tert-butyl)-6-(3-((1S,4R)-4-((3-(tert-butyl)-[1,2,4]triazolo[4,3-a]pyridin-6-yl)oxy)-1,2,3,4-tetrahydronaphthalen-1-yl)ureido)pyrimidine-2-carboxamide], the IC50 in test [1] is under 1 nM; in test [2] it was over 5 nM.

As for `COCC(C)(C)c1nnc2ccc(O[C@@H]3CC[C@H](NC(=O)Nc4cc(C(C)(C)C)nc(C(=O)NCCCN5CCOCC5)n4)c4ccccc43)cn12` [Example 121, 4-(tert-butyl)-6-(3-((1S,4R)-4-((3-(1-methoxy-2-methylpropan-2-yl)-[1,2,4]triazolo[4,3-a]pyridin-6-yl)oxy)-1,2,3,4-tetrahydronaphthalen-1-yl)ureido)-N-(3-morpholinopropyl)-pyrimidine-2-carboxamide], the IC50 was under 1 nM in test [1] and 1 to 5 nM in test [2].

In the case of `COCC(C)(C)c1nnc2ccc(O[C@@H]3CC[C@H](NC(=O)Nc4cc(C(C)(C)C)nc(C(=O)NCCN5CCCOCC5)n4)c4ccccc43)cn12` [Example 122, N-(2-(1,4-oxazepan-4-yl)ethyl)-4-(tert-butyl)-6-(3-((1S,4R)-4-((3-(1-methoxy-2-methylpropan-2-yl)-[1,2,4]triazolo[4,3-a]pyridin-6-yl)oxy)-1,2,3,4-tetrahydronaphthalen-1-yl)ureido)pyrimidine-2-carboxamide], the values for the IC50 in test [1] and in test [2] were under 1 nM and 1 to 5 nM, respectively.

Regarding `COCC(C)(C)c1nnc2ccc(O[C@@H]3CC[C@H](NC(=O)Nc4cc(C(C)(C)C)nc(C(=O)NCCN(C)CCO)n4)c4ccccc43)cn12` [Example 123, 4-(tert-butyl)-N-(2-((2-hydroxyethyl)(methyl)-amino)ethyl)-6-(3-((1S,4R)-4-((3-(1-methoxy-2-methylpropan-2-yl)-[1,2,4]triazolo[4,3-a]pyridin-6-yl)oxy)-1,2,3,4-tetrahydronaphthalen-1-yl)ureido)pyrimidine-2-carboxamide], the IC50 in test [1] is under 1 nM; in test [2], 1 to 5 nM.

For the compound `COC(C)(C)c1nnc2ccc(O[C@@H]3CC[C@H](NC(=O)Nc4cc(C(C)(C)C)nc(C(=O)NCCCN5CCOCC5)n4)c4ccccc43)cn12` [Example 124], the IC50 in test [1] was in the range of 1 to 10 nM; in test [2] it was 1 to 5 nM.

For the compound `COC(C)(C)c1nnc2ccc(O[C@@H]3CC[C@H](NC(=O)Nc4cc(C(C)(C)C)nc(C(=O)NCCN(C)CCO)n4)c4ccccc43)cn12` [Example 125, 4-(tert-butyl)-N-(2-((2-hydroxyethyl)(methyl)-amino)ethyl)-6-(3-((1S,4R)-4-((3-(2-methoxypropan-2-yl)-[1,2,4]triazolo[4,3-a]pyridin-6-yl)oxy)-1,2,3,4-tetrahydronaphthalen-1-yl)ureido)pyrimidine-2-carboxamide], the IC50 in test [1] is 1 to 10 nM; in test [2], over 5 nM.

Take `CN1CC(C(=O)NCc2nc(NC(=O)N[C@H]3CC[C@@H](Oc4ccc5nnc(C(C)(C)C)n5c4)c4ccccc43)cc(C(C)(C)C)n2)C1` [Example 126, N-((4-(tert-butyl)-6-(3-((1S,4R)-4-((3-(tert-butyl)-[1,2,4]triazolo[4,3-a]pyridin-6-yl)oxy)-1,2,3,4-tetrahydronaphthalen-1-yl)ureido)pyrimidin-2-yl)methyl)-1-methylazetidine-3-carboxamide]: the figures for the IC50 in test [1] and in test [2] were under 1 nM and over 5 nM, respectively.

On to `CN(C)CCC(=O)NCc1nc(NC(=O)N[C@H]2CC[C@@H](Oc3ccc4nnc(C(C)(C)C)n4c3)c3ccccc32)cc(C(C)(C)C)n1` [Example 127, N-((4-(tert-butyl)-6-(3-((1S,4R)-4-((3-(tert-butyl)-[1,2,4]triazolo[4,3-a]pyridin-6-yl)oxy)-1,2,3,4-tetrahydronaphthalen-1-yl)ureido)pyrimidin-2-yl)methyl)-3-(dimethylamino)-propanamide], for which the IC50 in test [1] was under 1 nM; in test [2] it was over 5 nM.

`CN1CCN(C(=O)c2nc(NC(=O)N[C@H]3CC[C@@H](Oc4ccc5nnc(C(C)(C)C)n5c4)c4ccccc43)cc(C(C)(C)C)n2)CC1` [Example 128, 1-(6-(tert-butyl)-2-(4-methylpiperazine-1-carbonyl)pyrimidin-4-yl)-3-((1S,4R)-4-((3-(tert-butyl)-[1,2,4]triazolo[4,3-a]pyridin-6-yl)oxy)-1,2,3,4-tetrahydronaphthalen-1-yl)urea]: the IC50 in test [1] is under 1 nM; in test [2], over 5 nM.

Consider `CN1CC[C@@H](NC(=O)c2nc(NC(=O)N[C@H]3CC[C@@H](Oc4ccc5nnc(C(C)(C)C)n5c4)c4ccccc43)cc(C(C)(C)C)n2)C1` [Example 129, 4-(tert-butyl)-6-(3-((1S,4R)-4-((3-(tert-butyl)-[1,2,4]triazolo[4,3-a]pyridin-6-yl)oxy)-1,2,3,4-tetrahydronaphthalen-1-yl)ureido)-N-((R)-1-methylpyrrolidin-3-yl)pyrimidine-2-carboxamide], for which the values for the IC50 in test [1] and in test [2] were under 1 nM and over 5 nM, respectively.

For `CN(C)CCOCCNC(=O)c1nc(NC(=O)N[C@H]2CC[C@@H](Oc3ccc4nnc(C(C)(C)C)n4c3)c3ccccc32)cc(C(C)(C)C)n1` [Example 130, 4-(tert-butyl)-6-(3-((1S,4R)-4-((3-(tert-butyl)-[1,2,4]triazolo[4,3-a]pyridin-6-yl)oxy)-1,2,3,4-tetrahydronaphthalen-1-yl)ureido)-N-(2-(2-(dimethylamino)ethoxy)-ethyl)pyrimidine-2-carboxamide], the IC50 in test [1] was under 1 nM; in test [2], over 5 nM.

In the case of `CCC(C)(C)c1nnc2ccc(O[C@@H]3CC[C@H](NC(=O)Nc4cc(C(C)(C)C)nc(C(=O)NCCN5CCOCC5)n4)c4ccccc43)cn12` [Example 131, 4-(tert-butyl)-N-(2-morpholinoethyl)-6-(3-((1S,4R)-4-((3-(tert-pentyl)-[1,2,4]triazolo[4,3-a]pyridin-6-yl)oxy)-1,2,3,4-tetrahydronaphthalen-1-yl)ureido)pyrimidine-2-carboxamide], the IC50 in test [1] was under 1 nM; in test [2], 1 to 5 nM.

Turning to `CCC(C)(C)c1nnc2ccc(O[C@@H]3CC[C@H](NC(=O)Nc4cc(C(C)(C)C)nc(C(=O)NCCCN5CCOCC5)n4)c4ccccc43)cn12` [Example 132, 4-(tert-butyl)-N-(3-morpholinopropyl)-6-(3-((1S,4R)-4-((3-(tert-pentyl)-[1,2,4]triazolo[4,3-a]pyridin-6-yl)oxy)-1,2,3,4-tetrahydronaphthalen-1-yl)ureido)pyrimidine-2-carboxamide], the IC50 is under 1 nM in test [1] and 1 to 5 nM in test [2].

On to `CN1CCC(NC(=O)c2nc(NC(=O)N[C@H]3CC[C@@H](Oc4ccc5nnc(C(C)(C)C)n5c4)c4ccccc43)cc(C(C)(C)C)n2)CC1` [Example 134, 4-(tert-butyl)-6-(3-((1S,4R)-4-((3-(tert-butyl)-[1,2,4]triazolo[4,3-a]pyridin-6-yl)oxy)-1,2,3,4-tetrahydronaphthalen-1-yl)ureido)-N-(1-methylpiperidin-4-yl)pyrimidine-2-carboxamide], for which the IC50 is 1 to 10 nM in test [1] and over 5 nM in test [2].

`CN1CC[C@H](NC(=O)c2nc(NC(=O)N[C@H]3CC[C@@H](Oc4ccc5nnc(C(C)(C)C)n5c4)c4ccccc43)cc(C(C)(C)C)n2)C1` [Example 136, 4-(tert-butyl)-6-(3-((1S,4R)-4-((3-(tert-butyl)-[1,2,4]triazolo[4,3-a]pyridin-6-yl)oxy)-1,2,3,4-tetrahydronaphthalen-1-yl)ureido)-N-((S)-1-methylpyrrolidin-3-yl)pyrimidine-2-carboxamide]: the IC50 is under 1 nM in test [1] and over 5 nM in test [2].

Consider `COCCN(C)CCNC(=O)c1nc(NC(=O)N[C@H]2CC[C@@H](Oc3ccc4nnc(C5(C)CC5)n4c3)c3ccccc32)cc(C(C)(C)C)n1` [Example 137, 4-(tert-butyl)-N-(2-((2-methoxyethyl)(methyl)-amino)ethyl)-6-(3-((1S,4R)-4-((3-(1-methylcyclopropyl)-[1,2,4]triazolo[4,3-a]pyridin-6-yl)oxy)-1,2,3,4-tetrahydronaphthalen-1-yl)ureido)pyrimidine-2-carboxamide], for which the IC50 in test [1] is 1 to 10 nM; in test [2] it was over 5 nM.
